Values quoted from earlier work as cited in patent publication US5747458A, “Urokinase receptor ligands” (Chiron Corporation, priority 1995, dated 1998).

Assays:
[1] = molecular target: uPA:uPAR interaction (Homo sapiens, UniProt Q03405)
[2] = molecular target: uPAR (Homo sapiens, UniProt Q03405)
Chain of uPAR (Q03405 23-335, species assumed): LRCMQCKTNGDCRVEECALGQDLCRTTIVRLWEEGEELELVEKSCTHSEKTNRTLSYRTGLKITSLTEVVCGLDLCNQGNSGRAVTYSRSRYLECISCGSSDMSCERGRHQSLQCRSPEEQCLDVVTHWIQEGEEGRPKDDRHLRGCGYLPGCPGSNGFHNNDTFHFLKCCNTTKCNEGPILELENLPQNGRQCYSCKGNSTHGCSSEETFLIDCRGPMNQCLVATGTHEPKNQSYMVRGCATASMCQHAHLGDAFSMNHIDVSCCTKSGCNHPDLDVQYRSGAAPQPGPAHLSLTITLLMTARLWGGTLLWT

Chain of uPA:uPAR interaction (Q03405 23-305 limits assumed): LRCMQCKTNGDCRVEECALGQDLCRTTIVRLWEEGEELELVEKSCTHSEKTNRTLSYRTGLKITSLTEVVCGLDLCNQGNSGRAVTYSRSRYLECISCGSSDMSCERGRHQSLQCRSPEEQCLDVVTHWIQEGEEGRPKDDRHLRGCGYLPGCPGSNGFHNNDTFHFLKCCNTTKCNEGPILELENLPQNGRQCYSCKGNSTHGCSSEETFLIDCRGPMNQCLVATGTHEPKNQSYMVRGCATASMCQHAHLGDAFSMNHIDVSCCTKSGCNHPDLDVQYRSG

Compound	effective concentration for inhibiting the uPA:uPAR interaction [1]	affinity relative to intact ATF (fold less) ([2]; compared with intact ATF)	Kd ([2]; read-out: affinity for uPAR)
Cc1ccc(C(=O)Nc2ccc(S(=O)(=O)O)c3cc(S(=O)(=O)O)cc(S(=O)(=O)O)c23)cc1NC(=O)c1cccc(NC(=O)Nc2cccc(C(=O)Nc3cc(C(=O)Nc4ccc(S(=O)(=O)O)c5cc(S(=O)(=O)O)cc(S(=O)(=O)O)c45)ccc3C)c2)c1 [suramin]	effective only at micromolar concentrations		
O=S(=O)(O)c1cccc2cccc(Nc3ccccc3)c12 [8-anilinonaphthalene sulfonic acid]	effective only at micromolar concentrations		
uPA12-32: critical binding domain alone, residues 12-32 of the EGF-like domain of uPA (DCLNGGTCVSNKYFSNIHWCN; UniProt P00749 32-52, looked up, fragment)		about 100 fold	40 nM
